# Measurements reported in patent US12568971B2, “Degradative method” (Catexel Technologies Limited, priority 2020, dated 2026).
# How the values were obtained:
# [1] = Dynamic viscosity of alginate solution after treatment (alginate depolymerisation), Brookfield cone/plate viscometer
# Method: The bottle was placed in a warm water bath (50° C.) for 60 minutes before being removed and cooled in an ice bath. Finally, the dynamic viscosity was determined using a Brookfield viscosity meter as outlined below. Note 1: A 2 mM solution of [[…])2 (see description of stock 12 above) was mixed with equivalent volume of the 2 mM ascorbic acid stock solution (stock solution 7). Upon contact with the ascorbic acid, the catalyst turned from orange/red to red/purple. Note 2: 0.5 mL of both Me3-TACN ligand (stock solution 10) and MnSO4·H2O (stock solution 8) were mixed, stirred and used as a source of catalyst to be placed in the alginate solution. The dynamic viscosity of the samples was measured using a Brookfield HBDV-II cone/plate viscosity meter equipped with a spindle CPE-40. The viscometer was linked to a water bath to maintain the temperature at 25° C. The apparatus was controlled via computer (external mode) using the Rheocalc software. Initially, the viscometer was zeroed without spindle. Then, the spindle CPE-40 was installed and the gap between the bottom of the cone and the top of the cup was set according to the recommendations given by Brookfield. 0.5 mL of the treated alginate solution was placed in the cup of the viscometer using a disposable plastic syringe before the apparatus was closed and the test program launched. […] Results.
# [2] = as above; remark: listed apart in the source
smiles,measurement,setting,value
"CC(=O)[O-].CC(=O)[O-].CN1CCN(C)CCN(C)CC1.CN1CCN(C)CCN(C)CC1.[Mn+4].[Mn+4].[O-2].[O-2].[O-2] [[Mn2(μ-O)3(Me3-TACN)2]^2+, [Mn^IVMn^IV(μ-O)3(1,4,7-trimethyl-1,4,7-triazacyclononane)2][CH3COO]2]",Dynamic Viscosity,"[1]; 2.5 μM, pH 8.0, 20 mM H2O2, 4.7 mM NaHCO3, 1 h at 50° C.",85.0 mPa.s
same,Dynamic Viscosity,"[1]; 2.5 μM, pH 8.5, 20 mM H2O2, 4.7 mM NaHCO3, 1 h at 50° C.",72.2 mPa.s
same,Dynamic Viscosity,"[1]; 2.5 μM, pH 9.0, 20 mM H2O2, 4.7 mM NaHCO3, 1 h at 50° C.",55.7 mPa.s
same,Dynamic Viscosity,"[1]; 2.5 μM, pH 9.0, 20 mM H2O2, 1 h at 50° C.",99.7 mPa · s
same,Dynamic Viscosity,"[1]; 2.5 μM, pH 9.5, 20 mM H2O2, 4.7 mM NaHCO3, 1 h at 50° C.",59.5 mPa.s
same,Dynamic Viscosity,"[1]; 2.5 μM, pH 9.5, 20 mM H2O2, 1 h at 50° C.",76.8 mPa · s
same,Dynamic Viscosity,"[1]; 2.5 μM, pH 10.0, 20 mM H2O2, 4.7 mM NaHCO3, 1 h at 50° C.",81.2 mPa.s
same,Dynamic Viscosity,"[1]; 2.5 μM, pH 10.0, 20 mM H2O2, 1 h at 50° C.",60.6 mPa · s
same,Dynamic Viscosity,"[1]; 2.5 μM, pH 10.5, 20 mM H2O2, 4.7 mM NaHCO3, 1 h at 50° C.",67.5 mPa.s
same,Dynamic Viscosity,"[1]; 2.5 μM, pH 10.5, 20 mM H2O2, 1 h at 50° C.",56.6 mPa · s
same,Dynamic Viscosity,"[1]; 2.5 μM, pH 11.0, 20 mM H2O2, 1 h at 50° C.",64.8 mPa · s
same,Dynamic Viscosity,"[1]; 5 μM, 20 mM ^tBuOOH, 0.25 g/L sodium tetraborate decahydrate pH 9, 60 min at 50° C.",52.3 mPa · s
same,Dynamic Viscosity,"[1]; 5 μM, pH 8.0, 20 mM H2O2, 4.7 mM NaHCO3, 1 h at 50° C.",50.9 mPa.s
same,Dynamic Viscosity,"[1]; 5 μM, pH 8.5, 20 mM H2O2, 4.7 mM NaHCO3, 1 h at 50° C.",38.6 mPa.s
same,Dynamic Viscosity,"[1]; 5 μM, pH 9, 10 mM H2O2, 4.7 mM NaHCO3, 60 min at 50° C.",21.6 mPa · s
same,Dynamic Viscosity,"[1]; 5 μM, pH 9.0, 20 mM H2O2, 4.7 mM NaHCO3, 1 h at 50° C.",24.1 mPa.s
same,Dynamic Viscosity,"[1]; 5 μM, pH 9.0, 20 mM H2O2, 1 h at 50° C.",78.1 mPa · s
same,Dynamic Viscosity,"[1]; 5 μM, pH 9.5, 20 mM H2O2, 4.7 mM NaHCO3, 1 h at 50° C.",28.0 mPa.s
same,Dynamic Viscosity,"[1]; 5 μM, pH 9.5, 20 mM H2O2, 1 h at 50° C.",41.3 mPa · s
same,Dynamic Viscosity,"[1]; 5 μM, pH 10, 10 mM H2O2, 4.7 mM NaHCO3, 60 min at 50° C.",40.6 mPa · s
same,Dynamic Viscosity,"[1]; 5 μM, pH 10.0, 20 mM H2O2, 4.7 mM NaHCO3, 1 h at 40° C.",54.2 mPa · s
same,Dynamic Viscosity,"[1]; 5 μM, pH 10.0, 20 mM H2O2, 4.7 mM NaHCO3, 1 h at 50° C.",61.0 mPa.s
same,Dynamic Viscosity,"[1]; 5 μM, pH 10.0, 20 mM H2O2, 1 h at 50° C.",27.2 mPa · s
same,Dynamic Viscosity,"[1]; 5 μM, pH 10.5, 20 mM H2O2, 4.7 mM NaHCO3, 1 h at 50° C.",57.0 mPa.s
same,Dynamic Viscosity,"[1]; 5 μM, pH 10.5, 20 mM H2O2, 1 h at 50° C.",25.6 mPa · s
same,Dynamic Viscosity,"[1]; 5 μM, pH 11, 10 mM H2O2, 4.7 mM NaHCO3, 60 min at 50° C.",62.1 mPa · s
same,Dynamic Viscosity,"[1]; 5 μM, pH 11.0, 20 mM H2O2, 1 h at 50° C.",40.4 mPa · s
same,Dynamic Viscosity,"[1]; 10 μM +1 molar equivalent ascorbic acid, pH 9.0, 0 mM Dequest 2047, 20 mM H2O2, 4.7 mM NaHCO3, 60 minutes at room temperature",7.9 mPa · s
same,Dynamic Viscosity,"[1]; 10 μM +1 molar equivalent ascorbic acid, pH 9.0, 20 mM H2O2, 4.7 mM NaHCO3, 60 minutes at 40° C.",7.4 mPa.s
same,Dynamic Viscosity,"[1]; 10 μM, no ascorbic acid, pH 9.5, 0 mM Dequest 2047, 20 mM H2O2, 4.7 mM NaHCO3, 60 minutes at room temperature",19.3 mPa · s
same,Dynamic Viscosity,"[1]; 10 μM, no ascorbic acid, pH 10.5, 1.0 mM Dequest 2047, 20 mM H2O2, 4.7 mM NaHCO3, 60 minutes at room temperature",42.6 mPa · s
same,Dynamic Viscosity,"[1]; 10 μM, 1.5 mM PAA + 1.5 mM H2O2, 0.185M Tris buffer, pH 8.5, 60 min at 30° C.",85.3 mPa · s
same,Dynamic Viscosity,"[1]; 10 μM, 3 mM H2O2, 0.185M Tris buffer, pH 8.5, 60 min at 30° C.",49.4 mPa · s
same,Dynamic Viscosity,"[1]; 10 μM, pH 8.0, 20 mM H2O2, 4.7 mM NaHCO3, 1 h at 40° C.",24.2 mPa · s
same,Dynamic Viscosity,"[1]; 10 μM, pH 8.0, 20 mM H2O2, 4.7 mM NaHCO3, 1 h at 50° C.",26.3 mPa.s
same,Dynamic Viscosity,"[1]; 10 μM, pH 8.5, 20 mM H2O2, 4.7 mM NaHCO3, 1 h at 50° C.",16.1 mPa.s
same,Dynamic Viscosity,"[1]; 10 μM, pH 9.0, 20 mM H2O2, 4.7 mM NaHCO3, 1 h at 40° C.",9.1 mPa · s
same,Dynamic Viscosity,"[1]; 10 μM, pH 9.0, 20 mM H2O2, 4.7 mM NaHCO3, 1 h at 50° C.",9.4 mPa.s
same,Dynamic Viscosity,"[1]; 10 μM, pH 9.0, 20 mM H2O2, 1 h at 50° C.",47.9 mPa · s
same,Dynamic Viscosity,"[1]; 10 μM, pH 9.5, 20 mM H2O2, 4.7 mM NaHCO3, 1 h at 40° C.",10.5 mPa · s
same,Dynamic Viscosity,"[1]; 10 μM, pH 9.5, 20 mM H2O2, 4.7 mM NaHCO3, 1 h at 50° C.",12.8 mPa.s
same,Dynamic Viscosity,"[1]; 10 μM, pH 9.5, 20 mM H2O2, 1 h at 50° C.",16.2 mPa · s
same,Dynamic Viscosity,"[1]; 10 μM, pH 10.0, 20 mM H2O2, 4.7 mM NaHCO3, 1 h at 50° C.",38.1 mPa.s
same,Dynamic Viscosity,"[1]; 10 μM, pH 10.0, 20 mM H2O2, 1 h at 50° C.",11.9 mPa · s
same,Dynamic Viscosity,"[1]; 10 μM, pH 10.5, 20 mM H2O2, 4.7 mM NaHCO3, 1 h at 50° C.",49.4 mPa.s
same,Dynamic Viscosity,"[1]; 10 μM, pH 10.5, 20 mM H2O2, 1 h at 50° C.",11.1 mPa · s
same,Dynamic Viscosity,"[1]; 10 μM, pH 11.0, 20 mM H2O2, 1 h at 50° C.",37.4 mPa · s
same,Dynamic Viscosity,"[1]; Entry 4: 2.5 μM catalyst, 2.5 μM ascorbic acid, 2.5 μM Me3TACN ligand, 20 mM H2O2, 4.7 mM NaHCO3, pH 10, 60 min at 50° C.",72.5 mPa · s
same,Dynamic Viscosity,"[1]; Entry 5: 2.5 μM catalyst, 2.5 μM ascorbic acid, 5 μM Me3TACN ligand, 20 mM H2O2, 4.7 mM NaHCO3, pH 10, 60 min at 50° C.",69.3 mPa · s
same,Dynamic Viscosity,"[1]; Entry 6: 2.5 μM catalyst, 2.5 μM ascorbic acid, 10 μM Me3TACN ligand, 20 mM H2O2, 4.7 mM NaHCO3, pH 10, 60 min at 50° C.",61.7 mPa · s
same,Dynamic Viscosity,"[1]; Entry 7: 2.5 μM catalyst, no ascorbic acid, no added ligand, 20 mM H2O2, 4.7 mM NaHCO3, pH 10, 60 min at 50° C.",78.1 mPa · s
same,Dynamic Viscosity,"[1]; Entry 8: 2.5 μM catalyst, 2.5 μM Me3TACN ligand, 20 mM H2O2, 4.7 mM NaHCO3, pH 10, 60 min at 50° C.",73.3 mPa · s
same,Dynamic Viscosity,"[1]; Entry 9: 2.5 μM catalyst, 5 μM Me3TACN ligand, 20 mM H2O2, 4.7 mM NaHCO3, pH 10, 60 min at 50° C.",66.6 mPa · s
same,Dynamic Viscosity,"[1]; Entry 10: 2.5 μM catalyst, 10 μM Me3TACN ligand, 20 mM H2O2, 4.7 mM NaHCO3, pH 10, 60 min at 50° C.",56.8 mPa · s
same,Dynamic Viscosity,"[1]; Entry 11: 5 μM catalyst, no added ligand, 20 mM H2O2, 4.7 mM NaHCO3, pH 10, 60 min at 50° C.",61.0 mPa · s
same,Dynamic Viscosity,"[1]; Entry 12: 5 μM catalyst, 5 μM Me3TACN ligand, 20 mM H2O2, 4.7 mM NaHCO3, pH 10, 60 min at 50° C.",54.0 mPa · s
same,Dynamic Viscosity,"[1]; Entry 13: 5 μM catalyst, 10 μM Me3TACN ligand, 20 mM H2O2, 4.7 mM NaHCO3, pH 10, 60 min at 50° C.",47.7 mPa · s
same,Dynamic Viscosity,"[1]; Entry 14: 5 μM catalyst, 20 μM Me3TACN ligand, 20 mM H2O2, 4.7 mM NaHCO3, pH 10, 60 min at 50° C.",38.1 mPa · s
same,Dynamic Viscosity,"[2]; 5 μM, pH 9.0, 20 mM H2O2, 4.7 mM NaHCO3, 1 h at 40° C.",17.9 mPa · s
same,Dynamic Viscosity,"[2]; 10 μM, 3 mM PAA, 0.185M Tris buffer, pH 8.5, 60 min at 30° C.",94.8 mPa · s
same,Dynamic Viscosity,"[2]; 10 μM, pH 10.5, 20 mM H2O2, 4.7 mM NaHCO3, 1 h at 40° C.",65.5 mPa · s
